# Laboratory results taken from US10053417B2, “Neprilysin inhibitors” (THERAVANCE BIOPHARMA R&D IP, LLC, priority 2013, dated 2018).
# Biological target: T1, human NEP (Homo sapiens, UniProt P08473)
# T1 construct: purchased R&D Systems, Minneapolis, Minn; 1182-ZN
# Experiment: In vitro enzyme inhibition assay, inhibitor potency at human NEP (Assay 1)
# Format: biochemical
# Details: recombinant human NEP; fluorogenic peptide substrate 10 μM; 37° C.; values given as ranges
# Procedure, shortened: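 Recombinant human NEP pre-incubated 30 min at 37 °C with compound ([…]), then 10 μM Mca-D-Arg-Arg-Leu-Dap-(Dnp)-OH added in 50 mM HEPES pH 7.5, 100 mM NaCl, 0.01% Tween-20, 10 μM ZnSO4; stopped after 20 min with acetic acid. Fluorescence ex 320/em 405 nm; Ki from nonlinear regression, reported as pKi.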
# T1 sequence (P08473 52-750 limits assumed): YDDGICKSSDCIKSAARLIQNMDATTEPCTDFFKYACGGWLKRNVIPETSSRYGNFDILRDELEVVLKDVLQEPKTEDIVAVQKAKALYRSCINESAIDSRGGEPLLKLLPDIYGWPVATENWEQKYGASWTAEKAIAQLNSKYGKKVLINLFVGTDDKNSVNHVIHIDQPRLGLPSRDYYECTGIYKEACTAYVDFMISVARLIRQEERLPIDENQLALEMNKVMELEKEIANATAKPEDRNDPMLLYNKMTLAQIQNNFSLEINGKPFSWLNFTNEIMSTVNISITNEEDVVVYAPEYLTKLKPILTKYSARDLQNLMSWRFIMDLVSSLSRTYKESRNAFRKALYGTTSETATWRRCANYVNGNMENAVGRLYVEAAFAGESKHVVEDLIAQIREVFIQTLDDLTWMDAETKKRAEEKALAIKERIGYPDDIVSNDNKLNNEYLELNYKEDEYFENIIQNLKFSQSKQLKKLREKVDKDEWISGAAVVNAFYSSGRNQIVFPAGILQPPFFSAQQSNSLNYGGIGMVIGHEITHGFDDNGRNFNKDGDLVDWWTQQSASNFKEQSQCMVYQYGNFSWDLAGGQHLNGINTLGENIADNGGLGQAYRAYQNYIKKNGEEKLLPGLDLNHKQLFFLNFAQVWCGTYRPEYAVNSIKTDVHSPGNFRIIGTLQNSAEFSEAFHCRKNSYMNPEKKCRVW
row,Structure (SMILES),Ki [µM]
1,"CCOCC(=O)N[C@H](Cc1ccc(-c2cccc(Cl)c2)cc1)C[C@@H](O)C(=O)O [Example 10-3, (2R,4R)-5-(3′-Chlorobiphenyl-4-yl)-4-(2-ethoxyacetylamino)-2-hydroxy-pentanoic acid]",0.01 to 0.0316
2,"CC(C)OCC(=O)N[C@H](Cc1ccc(-c2cccc(Cl)c2)cc1)C[C@@H](O)C(=O)O [Example 10-4, (2R,4R)-5-(3′-Chlorobiphenyl-4-yl)-2-hydroxy-4-(2-isopropoxyacetylamino)-pentanoic acid]",0.01 to 0.0316
3,"O=C(COc1cccnc1)N[C@H](Cc1ccc(-c2cccc(Cl)c2)cc1)C[C@@H](O)C(=O)O [Example 10-5, (2R,4R)-5-(3′-Chlorobiphenyl-4-yl)-2-hydroxy-4-[2-(pyridin-3-yloxy)-acetylamino]-pentanoic acid]",0.001 to 0.01
4,"O=C(COCc1ccccc1)N[C@H](Cc1ccc(-c2cccc(Cl)c2)cc1)C[C@@H](O)C(=O)O [Example 10-6, (2R,4R)-4-(2-Benzyloxy-acetylamino)-5-(3′-chlorobiphenyl-4-yl)-2-hydroxy-pentanoic acid]",0.01 to 0.0316
5,"O=C(COc1ccccc1)N[C@H](Cc1ccc(-c2cccc(Cl)c2)cc1)C[C@@H](O)C(=O)O [Example 10-7, (2R,4R)-5-(3′-Chlorobiphenyl-4-yl)-2-hydroxy-4-(2-phenoxyacetylamino)-pentanoic acid]",0.01 to 0.0316
6,"O=C(COc1ccc(O)cc1)N[C@H](Cc1ccc(-c2cccc(Cl)c2)cc1)C[C@@H](O)C(=O)O [Example 10-8, (2R,4R)-5-(3′-Chlorobiphenyl-4-yl)-2-hydroxy-4-[2-(4-hydroxyphenoxy)-acetylamino]-pentanoic acid]",0.01 to 0.0316
7,"COc1cccc(OCC(=O)N[C@H](Cc2ccc(-c3cccc(Cl)c3)cc2)C[C@@H](O)C(=O)O)c1 [Example 10-9, (2R,4R)-5-(3′-Chlorobiphenyl-4-yl)-2-hydroxy-4-[2-(3-methoxyphenoxy)-acetylamino]-pentanoic acid]",0.01 to 0.0316
8,"COCC(=O)N[C@H](Cc1ccc(-c2cccc(Cl)c2)cc1)C[C@@](C)(CO)C(=O)O [Example 11, (2S,4R)-5-(3′-Chlorobiphenyl-4-yl)-2-hydroxymethyl-4-(2-methoxy-acetylamino)-2-methylpentanoic Acid]",0.001 to 0.01
9,"C[C@@](CO)(C[C@@H](Cc1ccc(-c2cccc(Cl)c2)cc1)NC(=O)COCc1ccccc1)C(=O)O [Example 12, (2S,4R)-4-(2-Benzyloxyacetylamino)-5-(3′-chlorobiphenyl-4-yl)-2-hydroxymethyl-2-methyl-pentanoic acid]",0.01 to 0.0316
10,"C[C@@](CO)(C[C@@H](Cc1ccc(-c2cccc(Cl)c2)cc1)NC=O)C(=O)O [Example 13, (2S,4R)-5-(3′-Chlorobiphenyl-4-yl)-4-formylamino-2-hydroxymethyl-2-methyl-pentanoic Acid]",0.001 to 0.01
